Measurements: patent US10968203B2, “Pyrimidinyl-pyridyloxy-naphthyl compounds and methods of treating IRE1-related diseases and disorders” (Genentech, Inc., priority 2017, dated 2021)
Where a name gives a salt, the structure may show the parent alone.

Tested on: XBP1s-luc 293 LUC
Experiment: cellular PD assay, XBP1s-LUC reporter (Example 903)
Type: cell-based
Settings: Table 2; read-out: XBP1s-luc 293 LUC (IC50)
Procedure, shortened: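 Cellular IRE1α pathway activity was quantified from the luciferase signal of an XBP1-Luc reporter, where the luciferase fusion is in frame and expressed only from the spliced XBP1 transcript.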

Cc1ccc2c(NS(=O)(=O)CC(F)(F)C(F)(F)F)c(F)ccc2c1Oc1ncccc1-c1ccnc(N[C@H]2CCCNC2)n1 [Example 439, (S)-2,2,3,3,3-Pentafluoro-N-(2-fluoro-6-methyl-5-((3-(2-(piperidin-3-ylamino)pyrimidin-4-yl)pyridin-2-yl)oxy)naphthalen-1-yl)propane-1-sulfonamide hydrochloride]
IC50: 155 nM

Cc1ccc2c(NS(=O)(=O)N(C)C3CC3)c(F)ccc2c1Oc1ncccc1-c1ccnc(N[C@H]2CCCNC2)n1 [Example 440, 4-[2-[[5-[[Cyclopropyl(methyl)sulfamoyl]amino]-6-fluoro-2-methyl-1-naphthyl]oxy]-3-pyridyl]-2-[[(3S)-3-piperidyl]amino]pyrimidine hydrochloride]
IC50: 26 nM

Cc1ccc2c(NS(=O)(=O)N(C)CCC(F)(F)F)c(F)ccc2c1Oc1ncccc1-c1ccnc(N[C@H]2CCCNC2)n1 [Example 441, 4-[2-[[6-Fluoro-2-methyl-5-[[methyl(3,3,3-trifluoropropyl)sulfamoyl]amino]-1-naphthyl]oxy]-3-pyridyl]-2-[[(3S)-3-piperidyl]amino]pyrimidine hydrochloride]
IC50: 48 nM

Cc1ccc2c(NS(=O)(=O)CCC(C)(F)F)c(F)ccc2c1Oc1ncccc1-c1ccnc(N[C@H]2CCCNC2)n1 [Example 442, (S)-3,3-Difluoro-N-(2-fluoro-6-methyl-5-((3-(2-(piperidin-3-ylamino)pyrimidin-4-yl)pyridin-2-yl)oxy)naphthalen-1-yl)butane-1-sulfonamide hydrochloride]
IC50: 40 nM

Cc1ccc2c(NS(=O)(=O)Cc3noc4ccccc34)c(F)ccc2c1Oc1ncccc1-c1ccnc(N[C@H]2CCCNC2)n1 [Example 443, (S)-1-(Benzo[d]isoxazol-3-yl)-N-(2-fluoro-6-methyl-5-((3-(2-(piperidin-3-ylamino)pyrimidin-4-yl)pyridin-2-yl)oxy)naphthalen-1-yl)methanesulfonamide hydrochloride]
IC50: 8 nM

CCO[C@@H](CNc1cccc2c(Oc3ncccc3-c3ccnc(N[C@H]4CCCNC4)n3)c(C)ccc12)C(F)(F)F [Example 445, 4-(2-((5-(((S)-2-Ethoxy-3,3,3-trifluoropropyl)amino)-2-methylnaphthalen-1-yl)oxy)pyridin-3-yl)-N—((S)-piperidin-3-yl)pyrimidin-2-amine hydrochloride]
IC50: 78 nM

Cc1ccc2c(NS(=O)(=O)Cc3nn(C)cc3Cl)c(F)ccc2c1Oc1ncccc1-c1ccnc(N[C@H]2CCCNC2)n1 [Example 448, 1-(4-Chloro-1-methyl-pyrazol-3-yl)-N-[2-fluoro-6-methyl-5-[[3-[2-[[(3S)-3-piperidyl]amino]pyrimidin-4-yl]-2-pyridyl]oxy]-1-naphthyl]methanesulfonamide hydrochloride]
IC50: 19 nM

Cc1ccc2c(NS(=O)(=O)Cc3ccn(C)n3)c(F)ccc2c1Oc1ncccc1-c1ccnc(N[C@H]2CCCNC2)n1 [Example 449, N-[2-Fluoro-6-methyl-5-[[3-[2-[[(3S)-3-piperidyl]amino]pyrimidin-4-yl]-2-pyridyl]oxy]-1-naphthyl]-1-(1-methylpyrazol-3-yl)methanesulfonamide hydrochloride]
IC50: 25 nM

COCCCS(=O)(=O)Nc1c(F)ccc2c(Oc3ncccc3-c3ccnc(N[C@H]4CCCNC4)n3)c(C)ccc12 [Example 450, (S)—N-(2-Fluoro-6-methyl-5-((3-(2-(piperidin-3-ylamino)pyrimidin-4-yl)pyridin-2-yl)oxy)naphthalen-1-yl)-3-methoxypropane-1-sulfonamide hydrochloride]
IC50: 104 nM

O=S(=O)(CCC(F)(F)F)Nc1cccc2c(Oc3ncccc3-c3ccnc(N[C@H]4CCCNC4)n3)cccc12 [Example 451]
IC50: 345 nM

O=S(=O)(Cc1ccccc1)Nc1cccc2c(Oc3ncccc3-c3ccnc(N[C@H]4CCCNC4)n3)cccc12 [Example 452, (S)-1-Phenyl-N-(5-((3-(2-(piperidin-3-ylamino)pyrimidin-4-yl)pyridin-2-yl)oxy)naphthalen-1-yl)methanesulfonamide]
IC50: 19 nM

Cc1ccc2c(NS(=O)(=O)CC3(F)CC3)c(F)ccc2c1Oc1ncccc1-c1ccnc(N[C@H]2CCCNC2)n1 [Example 453, (S)—N-(2-Fluoro-6-methyl-5-((3-(2-(piperidin-3-ylamino)pyrimidin-4-yl)pyridin-2-yl)oxy)naphthalen-1-yl)-1-(1-fluorocyclopropyl)methanesulfonamide hydrochloride]
IC50: 18 nM

CCC(F)(F)CS(=O)(=O)Nc1c(F)ccc2c(Oc3ncccc3-c3ccnc(N[C@H]4CCCNC4)n3)c(C)ccc12 [Example 456, (S)-2,2-Difluoro-N-(2-fluoro-6-methyl-5-((3-(2-(piperidin-3-ylamino)pyrimidin-4-yl)pyridin-2-yl)oxy)naphthalen-1-yl)butane-1-sulfonamide hydrochloride]
IC50: 11 nM

CC/C(F)=C/S(=O)(=O)Nc1c(F)ccc2c(Oc3ncccc3-c3ccnc(N[C@H]4CCCNC4)n3)c(C)ccc12 [Example 457, (S,Z)-2-Fluoro-N-(2-fluoro-6-methyl-5-((3-(2-(piperidin-3-ylamino)pyrimidin-4-yl)pyridin-2-yl)oxy)naphthalen-1-yl)but-1-ene-1-sulfonamide hydrochloride]
IC50: 105 nM

Cc1ccc2c(NS(=O)(=O)c3cccc4c3ccn4C)c(F)ccc2c1Oc1ncccc1-c1ccnc(N[C@H]2CCCNC2)n1 [Example 458, N-[2-Fluoro-6-methyl-5-[[3-[2-[[(3S)-3-piperidyl]amino]pyrimidin-4-yl]-2-pyridyl]oxy]-1-naphthyl]-1-methyl-indole-4-sulfonamide]
IC50: 19 nM

Cc1ccc2c(NCC(=O)C3CC3)cccc2c1Oc1ncccc1-c1ccnc(N[C@H]2CCCNC2)n1 [Example 459, (S)-1-Cyclopropyl-2-((6-methyl-5-((3-(2-(piperidin-3-ylamino)pyrimidin-4-yl)pyridin-2-yl)oxy)naphthalen-1-yl)amino)ethanone hydrochloride]
IC50: 312 nM

Cc1ccc2c(NC(=O)C3CC34CC4)c(F)ccc2c1Oc1ncccc1-c1ccnc(N[C@H]2CCCNC2)n1 (stereo partly drawn) [Example 465, N-(2-Fluoro-6-methyl-5-((3-(2-(((S)-piperidin-3-yl)amino)pyrimidin-4-yl)pyridin-2-yl)oxy)naphthalen-1-yl)spiro[2.2]pentane-1-carboxamide]
IC50: 57 nM

Cc1ccc2c(NS(=O)(=O)CCC(F)F)c(F)ccc2c1Oc1ncccc1-c1ccnc(N[C@@H]2CNC[C@H](C)C2)n1 [Example 472, 3,3-Difluoro-N-(2-fluoro-6-methyl-5-((3-(2-(((3S,5R)-5-methylpiperidin-3-yl)amino)pyrimidin-4-yl)pyridin-2-yl)oxy)naphthalen-1-yl)propane-1-sulfonamide]
IC50: 8 nM

Cc1ccc2c(NS(=O)(=O)Cc3ccccc3F)c(F)ccc2c1Oc1ncccc1-c1ccnc(N[C@@H]2CNC[C@H](C)C2)n1 [Example 477, N-(2-Fluoro-6-methyl-5-((3-(2-(((3S,5R)-5-methylpiperidin-3-yl)amino)pyrimidin-4-yl)pyridin-2-yl)oxy)naphthalen-1-yl)-1-(2-fluorophenyl)methanesulfonamide]
IC50: 7 nM

Cc1cc(NS(=O)(=O)CCC(F)(F)F)c2ccccc2c1Oc1ncccc1-c1ccnc(N[C@H]2CCCNC2)n1 [Example 478, (S)-3,3,3-Trifluoro-N-(3-methyl-4-((3-(2-(piperidin-3-ylamino)pyrimidin-4-yl)pyridin-2-yl)oxy)naphthalen-1-yl)propane-1-sulfonamide]
IC50: 118 nM

Cc1ccc2c(NS(=O)(=O)Cc3ccccc3)cccc2c1Oc1ncccc1-c1ccnc(N[C@@H]2CNC[C@H](C)C2)n1 [Example 479, N-[6-Methyl-5-[[3-[2-[[(3S,5R)-5-methyl-3-piperidyl]amino]pyrimidin-4-yl]-2-pyridyl]oxy]-1-naphthyl]-1-phenyl-methanesulfonamide]
IC50: 12 nM

Cc1c(F)c(NS(=O)(=O)Cc2ccccc2)c2ccccc2c1Oc1ncccc1-c1ccnc(N[C@H]2CCCNC2)n1 [Example 480, (S)—N-(2-Fluoro-3-methyl-4-((3-(2-(piperidin-3-ylamino)pyrimidin-4-yl)pyridin-2-yl)oxy)naphthalen-1-yl)-1-phenylmethanesulfonamide]
IC50: 7 nM

Cc1ccc2c(NS(=O)(=O)CCC(F)(F)F)cccc2c1Oc1ncccc1-c1ccnc(N[C@@H]2CNC[C@H](C)C2)n1 [Example 481, 3,3,3-Trifluoro-N-(6-methyl-5-((3-(2-(((3S,5R)-5-methylpiperidin-3-yl)amino)pyrimidin-4-yl)pyridin-2-yl)oxy)naphthalen-1-yl)propane-1-sulfonamide]
IC50: 70 nM

Cc1c(F)c(NS(=O)(=O)CCC(F)(F)F)c2ccccc2c1Oc1ncccc1-c1ccnc(N[C@H]2CCCNC2)n1 [Example 482, (S)-3,3,3-Trifluoro-N-(2-fluoro-3-methyl-4-((3-(2-(piperidin-3-ylamino)pyrimidin-4-yl)pyridin-2-yl)oxy)naphthalen-1-yl)propane-1-sulfonamide]
IC50: 65 nM

Cc1c(F)c(NS(=O)(=O)CCC(F)(F)F)c2ccccc2c1Oc1ncccc1-c1ccnc(N[C@H]2CC[C@H](N)CC2)n1 [Example 483, N-(4-((3-(2-(((1r,4r)-4-Aminocyclohexyl)amino)pyrimidin-4-yl)pyridin-2-yl)oxy)-2-fluoro-3-methylnaphthalen-1-yl)-3,3,3-trifluoropropane-1-sulfonamide]
IC50: 146 nM

Cc1ccc2c(NS(=O)(=O)CCC(C)(F)F)c(F)ccc2c1Oc1ncccc1-c1ccnc(N[C@@H]2CNC[C@H](C)C2)n1 [Example 485, 3,3-Difluoro-N-[2-fluoro-6-methyl-5-[[3-[2-[[(3S,5R)-5-methyl-3-piperidyl]amino]pyrimidin-4-yl]-2-pyridyl]oxy]-1-naphthyl]butane-1-sulfonamide hydrochloride]
IC50: 6 nM

CCC(F)(F)CS(=O)(=O)Nc1c(F)ccc2c(Oc3ncccc3-c3ccnc(N[C@@H]4CNC[C@H](C)C4)n3)c(C)ccc12 [Example 486, 2,2-Difluoro-N-[2-fluoro-6-methyl-5-[[3-[2-[[(3S,5R)-5-methyl-3-piperidyl]amino]pyrimidin-4-yl]-2-pyridyl]oxy]-1-naphthyl]butane-1-sulfonamide hydrochloride]
IC50: 3 nM
